Our source for the GI50 and TGI values is PubChem BioAssay (NCI).

The structures appear in SMILES notation.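 How tested: cells in 96-well plates exposed to compound for 48 hours at five concentrations. GI50 is the concentration that inhibits growth by half. TGI denotes the concentration required for complete inhibition of growth.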 Some results are limits rather than exact numbers.

Among the test systems are TK-10 renal; U251 CNS; UACC-257 melanoma; HT29 colon; T-47D breast; K-562 leukemia; A498 renal.
Holding throughout (test): DTP human tumour cell line panel, 48 h

For `CCN(CCO)CCNc1ccc(C)c2sc3cc(Cl)ccc3c(=O)c12`, the GI50 was 1.8 µM in the experiment with TK-10 renal; 1.4 µM with U251 CNS; 1.97 µM in the experiment on UACC-257 melanoma; 1.28 µM in the experiment with HT29 colon; 1.91 µM in the experiment with T-47D breast; 0.32 µM with K-562 leukemia. For the same compound, the TGI came to 3.31 µM in the experiment on TK-10 renal; 2.79 µM with U251 CNS; 3.55 µM in the experiment with UACC-257 melanoma; 2.62 µM with HT29 colon; 3.96 µM in the experiment with T-47D breast; 1.42 µM in the experiment with K-562 leukemia.
Take `COc1cc(-c2cn(C)c(=O)c(C)c2C)cc(OC)c1CN1CC[C@H](N2CCN(c3ccc(N[C@H]4CCC(=O)NC4=O)cc3F)CC2)C(F)(F)C1`: the GI50 in the experiment with TK-10 renal is 12 µM; in the experiment with A498 renal, 13.8 µM; in the experiment on U251 CNS, 13.6 µM; with UACC-257 melanoma, 10.5 µM; with HT29 colon, 11.4 µM; in the experiment with T-47D breast it was 14.3 µM. Moreover, the GI50 with K-562 leukemia is 9.44 µM. Besides, the TGI with TK-10 renal was found to be 28.8 µM; in the experiment on A498 renal it was 27.2 µM; in the experiment with U251 CNS it was 29.6 µM; with UACC-257 melanoma, 24.2 µM; in the experiment on HT29 colon, 27.2 µM; in the experiment on T-47D breast it was 49.3 µM. In the experiment on K-562 leukemia, the TGI was over 100 µM.
`CCOC(=O)[C@@H](C)C[C@H](Cc1ccccc1)NC(=O)c1csc([C@@H](C[C@H](C(C)C)N(C)C(=O)[C@@H](NC(=O)[C@H]2CCCCN2C)C(C)(C)C)OC(C)=O)n1`: the GI50 in the experiment on TK-10 renal is 0.117 µM; in the experiment on A498 renal it was under 0.00167 µM; in the experiment on U251 CNS, under 0.00167 µM; in the experiment with HT29 colon it was under 0.00167 µM; in the experiment on K-562 leukemia, under 0.00167 µM. Moreover, the TGI in the experiment on TK-10 renal is over 16.7 µM; in the experiment on A498 renal it was under 0.00167 µM; with U251 CNS it was over 16.7 µM; with HT29 colon, over 7.52 µM; in the experiment with K-562 leukemia, over 16.7 µM.
Take `C=C1CC(COc2cc(Cl)nc(N)n2)C1`: the GI50 with A498 renal is 28.4 µM; in the experiment with U251 CNS it was 13.5 µM; with HT29 colon, 37 µM; in the experiment on T-47D breast, 23.3 µM; in the experiment on K-562 leukemia, 40 µM. In the experiment with A498 renal, this compound returned a concentration for total growth inhibition (TGI) of 96.8 µM.
On to `CCCNCc1cc(C)cc2c1nc(N1CCNCC1)n2Cc1cc(C)c(F)c(C)c1`, for which the GI50 with TK-10 renal was 14.3 µM; with U251 CNS, 1.84 µM; in the experiment on HT29 colon, 2.09 µM; with T-47D breast it was 1.88 µM; in the experiment on K-562 leukemia, 1.9 µM. In addition, the TGI in the experiment on TK-10 renal was determined as 28 µM; in the experiment on U251 CNS it was 3.58 µM; with HT29 colon it was 5.29 µM; in the experiment with T-47D breast it was 3.62 µM; in the experiment on K-562 leukemia it was 3.78 µM.
In the case of `COC(=O)C(Cc1ccccc1)N/C=C\C(=O)c1ccc(Cl)cc1` (centres undefined), the GI50 in the experiment with A498 renal was 31.1 µM; in the experiment with U251 CNS, 22 µM; in the experiment with UACC-257 melanoma, 26.5 µM; in the experiment on HT29 colon it was 35.1 µM; in the experiment on T-47D breast, 37 µM; with K-562 leukemia, 54.7 µM. Moreover, the TGI in the experiment on A498 renal was 75.8 µM; in the experiment with U251 CNS, 51.7 µM; in the experiment on UACC-257 melanoma, 67.1 µM; with HT29 colon, over 100 µM; in the experiment with T-47D breast, over 100 µM; in the experiment on K-562 leukemia it was over 100 µM.
For `CCN(Cc1c(F)cccc1F)c1ccc(CO)c(Cl)c1`, the GI50 with A498 renal is 0.0173 µM; with U251 CNS, 0.195 µM; in the experiment on UACC-257 melanoma, 0.0389 µM; with HT29 colon, 0.747 µM; with T-47D breast, 0.0516 µM; with K-562 leukemia it was 0.209 µM. Also, the TGI in the experiment with A498 renal is 0.069 µM; with U251 CNS, 32.5 µM; with UACC-257 melanoma, 0.149 µM; with HT29 colon, 19.5 µM; with T-47D breast, 0.288 µM; in the experiment on K-562 leukemia, 28.2 µM.
For `Cc1sc(C)c(-c2ccc(CO)o2)c1-c1ccc(CO)o1`, the GI50 in the experiment with TK-10 renal was 0.116 µM; in the experiment with A498 renal, 0.0205 µM; in the experiment on U251 CNS, 14.5 µM; in the experiment with HT29 colon, 0.498 µM; with K-562 leukemia it was 0.622 µM. Moreover, the TGI with TK-10 renal is 0.426 µM; in the experiment on A498 renal, 0.0973 µM; in the experiment on U251 CNS, over 100 µM; in the experiment with HT29 colon, over 100 µM; with K-562 leukemia, over 100 µM.
Regarding `Cc1ccc2/c(=C/c3ccc(N(C)C)cc3)c3cc(-c4ccccc4)[n+](C)n3c2c1`, the GI50 is 0.266 µM in the experiment with TK-10 renal; under 0.01 µM in the experiment on U251 CNS; 0.0307 µM in the experiment with UACC-257 melanoma; 0.0411 µM in the experiment on HT29 colon; 0.0956 µM with T-47D breast; under 0.0255 µM in the experiment with K-562 leukemia. Moreover, the TGI in the experiment on TK-10 renal was 2.36 µM; with UACC-257 melanoma, 1.71 µM; in the experiment with HT29 colon, over 100 µM; with T-47D breast, over 100 µM; in the experiment with K-562 leukemia it was over 100 µM.
`Cc1ccc(-c2nc(C(Cl)Cl)n3nc(-c4ccccc4)cc3n2)cc1`: the GI50 with U251 CNS was 0.322 µM; in the experiment with HT29 colon, 1.1 µM; in the experiment with T-47D breast, 0.505 µM; with K-562 leukemia, 1.07 µM. Besides, the TGI is 1.53 µM in the experiment on U251 CNS, over 56.2 µM in the experiment on HT29 colon, 3.53 µM with T-47D breast and over 100 µM with K-562 leukemia.
With `COc1ccccc1C(=O)c1ccc2ccccc2c1`, the TGI was 63.6 µM with TK-10 renal; over 100 µM with U251 CNS; over 100 µM with UACC-257 melanoma; 85.7 µM in the experiment with HT29 colon; over 100 µM with K-562 leukemia.
Regarding `Cc1ccc(C(=O)CC(Sc2cccc(Cl)c2Cl)c2ccc(Cl)cc2)cc1C` (centres undefined), the GI50 was 17.2 µM in the experiment with TK-10 renal; 19.2 µM in the experiment on A498 renal; 11.5 µM in the experiment with U251 CNS; 20.9 µM with UACC-257 melanoma; 27.1 µM in the experiment on T-47D breast; 27.2 µM in the experiment with K-562 leukemia. The TGI in the experiment with TK-10 renal was 35 µM; in the experiment with A498 renal it was 46.8 µM; in the experiment on U251 CNS, 25.8 µM; in the experiment on UACC-257 melanoma it was 48.6 µM; in the experiment on T-47D breast it was 76.9 µM; in the experiment with K-562 leukemia it was over 100 µM.
For the compound `CC(=O)n1c(-c2ccc(Cl)cc2)nc2c(c1=O)C(c1ccc(Cl)cc1)c1sc3c(Cl)cccc3c1O2` (centres undefined), the GI50 in the experiment on TK-10 renal was 0.987 µM; with U251 CNS, 0.446 µM; in the experiment on UACC-257 melanoma it was 0.68 µM; with HT29 colon, 0.368 µM; in the experiment on T-47D breast, 0.48 µM; with K-562 leukemia it was 0.405 µM. Also, the TGI was 2.62 µM in the experiment with TK-10 renal; 1.67 µM in the experiment on U251 CNS; 3.9 µM in the experiment with UACC-257 melanoma; 1.33 µM with HT29 colon; 2.78 µM in the experiment on T-47D breast; 2.32 µM in the experiment with K-562 leukemia.
